In brackets after ≈: the same amount, converted by molar mass.
Legend:
[1] = Toxicity in brine shrimp larvae; assay type: organism-based; conditions: artemia, in vivo
P388 = experiment: Cytotoxicity against mouse P388 cells; assay type: functional; conditions: read-out: ED50 (the source's name)

## CC(O)C#CC#CC#CC#CCCCCCCCC(=O)O (single isomer, unassigned; (-))
[1]
  LC50: 5.06 µg/mL (≈ 17.8 µM)
P388
  EC50: 0.53 µg/mL (≈ 1.86 µM)
